Data from patent US20250353891A1 (MEDIMMUNE LIMITED, priority 2022, published 2025).
Starred links: 1 amine or outer side, 2 acyl side, 3 side chain; linkers in the order of their positions; H or OH if unused. Non-standard residues stand in square brackets, D forms with d. Residues, ends and D or L forms follow the SMILES beside them. Groups on a side chain read outwards from the residue. *: point of attachment. C20 diacid = O=C(O)CCCCCCCCCCCCCCCCCCC(=O)*; X2 = CC(C)(CC(N)=O)[C@H](N[*:1])C(=O)[*:2]; C18 diacid = O=C(O)CCCCCCCCCCCCCCCCC(=O)*; γGlu = O=C(O)[C@H](CCC(=O)[*:2])N[*:1]; X3 = O=C(CN(Cc1c[nH]cn1)[*:1])[*:2]; Stearoyl = CCCCCCCCCCCCCCCCCC(=O)*; Palmitoyl = CCCCCCCCCCCCCCCC(=O)*; αMeF = C[C@](N)(Cc1ccccc1)C(=O)O; PEG2 = NCCOCCOCCC(=O)O; AEEA = NCCOCCOCC(=O)O; Aib = CC(C)(N)C(=O)O

Target: human GLP-1 receptor (hGLP-1R) (Homo sapiens, UniProt P43220)
Sequence (P43220 24-463): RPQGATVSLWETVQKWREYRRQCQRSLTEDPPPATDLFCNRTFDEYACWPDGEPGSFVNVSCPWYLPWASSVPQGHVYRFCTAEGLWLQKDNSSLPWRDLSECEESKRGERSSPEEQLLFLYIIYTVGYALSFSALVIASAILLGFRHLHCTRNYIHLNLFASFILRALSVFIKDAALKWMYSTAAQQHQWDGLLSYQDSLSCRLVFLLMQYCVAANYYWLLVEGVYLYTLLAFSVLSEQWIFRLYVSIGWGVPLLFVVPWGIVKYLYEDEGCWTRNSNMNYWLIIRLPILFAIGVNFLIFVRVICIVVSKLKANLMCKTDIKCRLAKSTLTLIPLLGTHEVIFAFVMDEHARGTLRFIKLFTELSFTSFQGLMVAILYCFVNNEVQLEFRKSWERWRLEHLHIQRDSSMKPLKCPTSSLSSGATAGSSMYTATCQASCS
Experiment: cAMP production (HTRF) in CHO cells expressing hGLP-1R
Type: cell-based
Set-up: expressed in transfected cells
Settings: % GLP-1R activity relative to GLP-1 / % GlucR activity relative to glucagon
Description: Cells were re-suspended in assay buffer at a batch-dependent optimized concentration (typically hGLP-1R cells at 1×10^5 cells/mL, hGCGR cells at 2×10^5 cells/mL).
Cells were added to the assay plate using a multidrop dispenser and incubated at room temperature for 30 minutes before measuring the cAMP level using a cAMP dynamic 2 homogeneous time resolved Fluorescence (HTRF) kit (Cisbio Bioassays #62AM4PEJ) following the two-step protocol as per manufacturer's recommendations. In brief, anti-cAMP cryptate (donor fluorophore) and cAMP-d2 (acceptor fluorophore) were made up separately by diluting each 1 in 20 in conjugate and lysis buffer provided in the kit. Anti-CAMP cryptate was added to all wells of the assay plate, followed by cAMP-d2 added to all wells except non-specific binding (NSB) wells (to which conjugate and lysis buffer was added).
Data was transformed to % Delta F as described in the manufacturer's guidelines and analyzed by 4-parameter logistic fit to determine EC50 values.

Row | Structure (SMILES) | % Relative Potency Ratio (Table 6) | further results
1 | CCCCCCCCCCCCCCCC(=O)N[C@@H](CCC(=O)N[C@@H](CCC(=O)NCCOCCOCCC(=O)NCCOCCOCCC(=O)NCCCC[C@H](NC(=O)[C@H](CO)NC(=O)[C@H](CC(=O)O)NC(=O)[C@H](CC(C)C)NC(=O)[C@](C)(Cc1ccccc1)NC(=O)[C@H](CCCCN)NC(=O)[C@H](CO)NC(=O)[C@@H](NC(=O)[C@H](CC(=O)O)NC(=O)[C@H](CO)NC(=O)[C@@H](NC(=O)[C@](C)(Cc1ccccc1)NC(=O)[C@H](CO)NC(=O)CNC(=O)[C@H](CCC(N)=O)NC(=O)[C@H](CO)NC(=O)[C@@H](N)Cc1c[nH]cn1)[C@@H](C)O)C(C)C)C(=O)N[C@@H](C)C(=O)N[C@@H](C)C(=O)N[C@@H](CCC(N)=O)C(=O)N[C@@H](CC(=O)O)C(=O)N[C@@](C)(Cc1ccccc1)C(=O)N[C@H](C(=O)N[C@@H](CCC(N)=O)C(=O)N[C@H](C(=O)N[C@H](C(=O)N[C@@H](C)C(=O)N[C@@H](CC(N)=O)C(N)=O)[C@@H](C)CC)[C@@H](C)CC)C(C)C)C(=O)O)C(=O)O [Peptide 89] (H-HSQGS[αMeF]TSDVSK[αMeF]LDSK([PEG2-PEG2-γGlu-γGlu-Palmitoyl])AAQD[αMeF]VQIIAN-NH2; N-terminus assumed) | 8.0 | 
2 | CC[C@H](C)[C@H](NC(=O)C(C)(C)NC(=O)[C@H](CCC(N)=O)NC(=O)[C@@H](NC(=O)[C@](C)(Cc1ccccc1)NC(=O)[C@H](CC(=O)O)NC(=O)[C@H](CCCCNC(=O)COCCOCCNC(=O)COCCOCCNC(=O)CC[C@H](NC(=O)CCCCCCCCCCCCCCCCC(=O)O)C(=O)O)NC(=O)[C@H](C)NC(=O)[C@H](C)NC(=O)[C@H](CCCNC(=N)N)NC(=O)[C@H](CO)NC(=O)[C@H](CC(=O)O)NC(=O)[C@H](CC(C)C)NC(=O)[C@](C)(Cc1ccccc1)NC(=O)[C@H](CCCCN)NC(=O)[C@H](CO)NC(=O)[C@@H](NC(=O)[C@H](CC(=O)O)NC(=O)[C@H](CO)NC(=O)[C@@H](NC(=O)[C@](C)(Cc1ccccc1)NC(=O)[C@H](CO)NC(=O)CNC(=O)[C@@H](NC(=O)[C@H](CO)NC(=O)[C@@H](N)Cc1c[nH]cn1)C(C)(C)CC(N)=O)[C@@H](C)O)C(C)C)C(C)C)C(=O)N[C@@H](C)C(=O)N[C@@H](CC(N)=O)C(=O)N[C@H](C(N)=O)[C@@H](C)O [Peptide 324] (H-HS[X2]GS[αMeF]TSDVSK[αMeF]LDSRAAK([AEEA-AEEA-γGlu-C18 diacid])D[αMeF]VQ[Aib]IANT-NH2; N-terminus assumed) |  | % Relative Potency Ratio (Table 7): 2.9
3 | CC(C)C[C@H](NC(=O)[C@H](Cc1c[nH]c2ccccc12)NC(=O)[C@H](CCCNC(=N)N)NC(=O)[C@@H](NC(=O)[C@H](Cc1ccccc1)NC(=O)[C@H](CC(=O)O)NC(=O)[C@H](CCC(N)=O)NC(=O)[C@H](C)NC(=O)[C@H](CCCNC(=N)N)NC(=O)[C@H](CCCCNC(=O)COCCOCCNC(=O)COCCOCCNC(=O)CC[C@H](NC(=O)CCCCCCCCCCCCCCCCC(=O)O)C(=O)O)NC(=O)[C@H](CO)NC(=O)[C@H](CC(=O)O)NC(=O)[C@H](CC(C)C)NC(=O)[C@](C)(Cc1ccccc1)NC(=O)[C@H](CCCCN)NC(=O)[C@H](CO)NC(=O)[C@@H](NC(=O)[C@H](CC(=O)O)NC(=O)[C@H](CO)NC(=O)[C@@H](NC(=O)[C@H](Cc1ccccc1)NC(=O)[C@@H](NC(=O)CNC(=O)[C@H](CCC(N)=O)NC(=O)C(C)(C)NC(=O)[C@@H](N)Cc1c[nH]cn1)[C@@H](C)O)[C@@H](C)O)C(C)C)C(C)C)C(=O)N[C@@H](CC(C)C)C(=O)NC(C)(C)C(=O)N[C@H](C(=O)N[C@@H](CCCCN)C(=O)O)[C@@H](C)O [Peptide 177] | 25.5 | 
4 | CCCCCCCCCCCCCCCCCC(=O)N[C@@H](CCC(=O)N[C@@H](CCC(=O)NCCOCCOCCC(=O)NCCOCCOCCC(=O)NCCCC[C@H](NC(=O)[C@H](CO)NC(=O)[C@H](CC(=O)O)NC(=O)[C@H](CC(C)C)NC(=O)[C@](C)(Cc1ccccc1)NC(=O)[C@H](CCCCN)NC(=O)[C@H](CO)NC(=O)[C@@H](NC(=O)[C@H](CC(=O)O)NC(=O)[C@H](CO)NC(=O)[C@@H](NC(=O)[C@](C)(Cc1ccccc1)NC(=O)[C@H](CO)NC(=O)CNC(=O)[C@H](CCC(N)=O)NC(=O)[C@H](CO)NC(=O)[C@@H](N)Cc1c[nH]cn1)[C@@H](C)O)C(C)C)C(=O)N[C@@H](C)C(=O)N[C@@H](C)C(=O)N[C@@H](CCC(N)=O)C(=O)N[C@@H](CC(=O)O)C(=O)N[C@@](C)(Cc1ccccc1)C(=O)N[C@H](C(=O)N[C@@H](CCC(N)=O)C(=O)NC(C)(C)C(=O)N[C@H](C(=O)N[C@@H](C)C(=O)N[C@@H](CC(N)=O)C(=O)N[C@H](C(N)=O)[C@@H](C)O)[C@@H](C)CC)C(C)C)C(=O)O)C(=O)O [Peptide 82] (H-HSQGS[αMeF]TSDVSK[αMeF]LDSK([PEG2-PEG2-γGlu-γGlu-Stearoyl])AAQD[αMeF]VQ[Aib]IANT-NH2; N-terminus assumed) | 18.3 | 
5 | CC[C@H](C)[C@H](NC(=O)[C@H](Cc1c[nH]c2ccccc12)NC(=O)[C@H](CCCCNC(=O)COCCOCCNC(=O)COCCOCCNC(=O)CC[C@H](NC(=O)CC[C@H](NC(=O)CCCCCCCCCCCCCCCCCCC(=O)O)C(=O)O)C(=O)O)NC(=O)[C@@H](NC(=O)[C@H](Cc1ccccc1)NC(=O)[C@H](CC(=O)O)NC(=O)[C@H](CCC(N)=O)NC(=O)[C@H](C)NC(=O)[C@H](C)NC(=O)[C@H](CCCNC(=N)N)NC(=O)[C@H](CO)NC(=O)[C@H](CC(=O)O)NC(=O)[C@H](CC(C)C)NC(=O)[C@](C)(Cc1ccccc1)NC(=O)[C@H](CCCCN)NC(=O)[C@H](CO)NC(=O)[C@@H](NC(=O)[C@H](CC(=O)O)NC(=O)[C@H](CO)NC(=O)[C@@H](NC(=O)[C@](C)(Cc1ccccc1)NC(=O)[C@H](CO)NC(=O)CNC(=O)[C@H](Cc1c[nH]cn1)NC(=O)[C@H](CO)NC(=O)CNCc1c[nH]cn1)[C@@H](C)O)C(C)C)C(C)C)C(=O)N[C@@H](C)C(=O)N[C@@H](CC(N)=O)C(=O)N[C@H](C(N)=O)[C@@H](C)O [Peptide 380] (H-[X3]SHGS[αMeF]TSDVSK[αMeF]LDSRAAQDFVK([AEEA-AEEA-γGlu-γGlu-C20 diacid])WIANT-NH2) |  | % Relative Potency Ratio: 33.9
6 | CC[C@H](C)[C@H](NC(=O)[C@H](Cc1c[nH]c2ccccc12)NC(=O)[C@H](C)NC(=O)[C@@H](NC(=O)[C@](C)(Cc1ccccc1)NC(=O)[C@H](CC(=O)O)NC(=O)[C@H](CCCCNC(=O)COCCOCCNC(=O)COCCOCCNC(=O)CC[C@H](NC(=O)CCCCCCCCCCCCCCCCC(=O)O)C(=O)O)NC(=O)[C@H](C)NC(=O)[C@H](C)NC(=O)[C@H](CCCNC(=N)N)NC(=O)[C@H](CO)NC(=O)[C@H](CC(=O)O)NC(=O)[C@H](CC(C)C)NC(=O)[C@](C)(Cc1ccccc1)NC(=O)[C@H](CCCCN)NC(=O)[C@H](CO)NC(=O)[C@@H](NC(=O)[C@H](CC(=O)O)NC(=O)[C@H](CO)NC(=O)[C@@H](NC(=O)[C@](C)(Cc1ccccc1)NC(=O)[C@H](CO)NC(=O)CNC(=O)[C@H](Cc1c[nH]cn1)NC(=O)C(C)(C)NC(=O)[C@@H](N)Cc1c[nH]cn1)[C@@H](C)O)C(C)C)[C@@H](C)CC)C(=O)N[C@@H](C)C(=O)N[C@@H](CC(N)=O)C(=O)N[C@H](C(N)=O)[C@@H](C)O [Peptide 230] (H-H[Aib]HGS[αMeF]TSDVSK[αMeF]LDSRAAK([AEEA-AEEA-γGlu-C18 diacid])D[αMeF]IAWIANT-NH2) |  | % Relative Potency Ratio (Table 7): 0.4
7 | CCCCCCCCCCCCCCCCCC(=O)N[C@@H](CCC(=O)N[C@@H](CCC(=O)NCCOCCOCCC(=O)NCCOCCOCCC(=O)NCCCC[C@H](NC(=O)[C@H](CC(=O)O)NC(=O)[C@H](CO)NC(=O)[C@@H](NC(=O)[C@](C)(Cc1ccccc1)NC(=O)[C@H](CO)NC(=O)CNC(=O)[C@H](CCC(N)=O)NC(=O)[C@H](CO)NC(=O)[C@@H](N)Cc1c[nH]cn1)[C@@H](C)O)C(=O)N[C@@H](CO)C(=O)N[C@@H](CCCCN)C(=O)N[C@H](C(=O)N[C@@H](CC(C)C)C(=O)N[C@@H](CC(=O)O)C(=O)N[C@@H](CO)C(=O)N[C@H](C(=O)N[C@@H](C)C(=O)N[C@@H](C)C(=O)N[C@@H](CCC(N)=O)C(=O)N[C@@H](CC(=O)O)C(=O)N[C@@](C)(Cc1ccccc1)C(=O)N[C@H](C(=O)N[C@@H](CCC(=O)O)C(=O)NC(C)(C)C(=O)N[C@@H](CC(C)C)C(=O)N[C@@H](C)C(=O)N[C@@H](CC(N)=O)C(=O)N[C@H](C(N)=O)[C@@H](C)O)C(C)C)C(C)(C)CCNC(=N)N)C(c1ccccc1)c1ccccc1)C(=O)O)C(=O)O [Peptide 393, HSQGS(αMePhe)TSDK((PEG)2-(PEG)2-γE-yE-Stearoyl)10SK(Dip)LDS(β-dimethylArg)AAQD(αMePhe)VE(Aib)LANT-amide] |  | % Relative Potency Ratio: 9.3
8 | CC(C)C[C@H](NC(=O)[C@H](Cc1c[nH]c2ccccc12)NC(=O)[C@H](CCC(N)=O)NC(=O)[C@@H](NC(=O)[C@H](Cc1ccccc1)NC(=O)[C@H](CC(=O)O)NC(=O)[C@H](CCCNC(=N)N)NC(=O)[C@H](C)NC(=O)[C@H](CCCNC(=N)N)NC(=O)[C@H](CCCCNC(=O)COCCOCCNC(=O)COCCOCCNC(=O)CC[C@H](NC(=O)CCCCCCCCCCCCCCCCCCC(=O)O)C(=O)O)NC(=O)[C@@H](NC(=O)[C@H](CCC(=O)O)NC(=O)[C@H](CC(C)C)NC(=O)[C@](C)(Cc1ccccc1)NC(=O)[C@H](CCCCN)NC(=O)[C@H](CO)NC(=O)[C@@H](NC(=O)[C@H](CC(=O)O)NC(=O)[C@H](CO)NC(=O)[C@@H](NC(=O)[C@H](Cc1ccccc1)NC(=O)[C@@H](NC(=O)CNC(=O)[C@H](CCC(N)=O)NC(=O)C(C)(C)NC(=O)[C@@H](N)Cc1c[nH]cn1)[C@@H](C)O)[C@@H](C)O)C(C)C)[C@@H](C)O)C(C)C)C(=O)N[C@@H](CC(C)C)C(=O)N[C@@H](CCC(=O)O)C(=O)NC(C)(C)C(=O)NCC(=O)O [Peptide 444] | 14.1 | 
